Measurements reported in patent US4499094A, “Derivatives of arene and hetero-arene carboxamides and their use as medicaments” (Pharmuka Laboratoires, priority 1982, dated 1985).
Where two headings read alike, the source gives them in different places.

How the values were obtained:
[1] = biological target: T1, "peripheral" receptor sites of benzodiazepines (Rattus norvegicus, UniProt P16257); test: Affinity for "peripheral" receptor sites of benzodiazepines: displacement of tritiated diazepam on kidney membranes from the rat; assay type: binding
T1 construct: on kidney membranes from the rat; from tissue; host or cells: rat kidney membranes
Text: The products have been studied according to the method of C. BRAESTRUP et al, Proc. Natl. Acad. Sci. USA, 1977, 74, 3805, on kidney membranes from the rat.

[2] = system: binding sites of (^3 H) diazepam in the kidney; details: cited from earlier work; for classification by decreasing affinity, "peripheral" type: rank order; for activity at the binding sites of (^3 H) diazepam in the kidney (peripheral level): in words
[3] = system: binding sites of (^3 H) diazepam in the brain; details: cited from earlier work

Row | SMILES | Ki ([1]; read-out: Ki) [µM] | also measured
1 | CCN(CC)C(=O)c1cc2ccccc2c(-c2cccc(F)c2)n1 [Example 15, N,N-diethyl 1-(3-fluorophenyl) isoquinoline 3-carboxamide] | 0.02 | 
2 | CCC(C)N(C)C(=O)c1cc(-c2ccccc2F)c2ccccc2n1 (stereo not shown) [Example 35, N-methyl N(1-methylpropyl) 4-(2-fluorophenyl) quinoline 2-carboxamide] | 0.002 | 
3 | CCN(CC)C(=O)c1cc(-c2ccccc2)c2ccccc2n1 [Example 3, N,N-diethyl 4-phenyl quinoline 2-carboxamide] | 0.027 | 
4 | C=CC(C)N(C)C(=O)c1cc2ccccc2c(-c2ccccc2Cl)n1 (stereo not shown) [Example 25, N-methyl N(1-methylpropene-2-yl) 1-(2-chlorophenyl) isoquinoline 3-carboxamide] | 0.003 | 
5 | CCCN(CCC)C(=O)c1cc2ccccc2c(-c2ccccc2Cl)n1 [Example 14, N,N-dipropyl 1-(2-chlorophenyl) isoquinoline 3-carboxamide] | 0.018 | 
6 | CN1C(=O)CN=C(c2ccccc2)c2cc(Cl)ccc21 [diazepam] |  | classification by decreasing affinity, "peripheral" type [2]: Ro-5-4864>diazepam>clonazepam
7 | CCC(C)N(C)C(=O)c1cc2ccsc2c(-c2ccccc2Cl)n1 (stereo not shown) [Example 46, N-methyl N-(1-methylpropyl) 7-(2-chlorophenyl) thieno[2,3-c]pyridine 5-carboxamide] | 0.007 | 
8 | CCN(CC)C(=O)c1cc2ccccc2c(-c2cccc(Cl)c2)n1 [Example 11, N,N-diethyl 1-(3-chlorophenyl) isoquinoline 3-carboxamide] | 0.009 | 
9 | O=C1CN=C(c2ccccc2Cl)c2cc([N+](=O)[O-])ccc2N1 [clonazepam] |  | activity at the binding sites of (^3 H) diazepam in the kidney (peripheral level) [2]: practically inactive; classification by decreasing affinity, "peripheral" type [2]: Ro-5-4864>diazepam>clonazepam
10 | CN(Cc1ccccc1)C(=O)c1cc2ccccc2c(-c2ccccc2Cl)n1 [Example 17, N-methyl N-phenylmethyl 1-(2-chlorophenyl) isoquinoline 3-carboxamide] | 0.117 | 
11 | O=C(c1cc2ccccc2c(-c2ccccc2)n1)N1CCCCC1 [Example 7, 1-[3-(1-phenylisoquinolyl)carbonyl]piperidine] | 0.21 | 
12 | CCN(CC)C(=O)c1nc(-c2ccccc2)c2ccccc2n1 [Example 33, N,N-diethyl 4-phenyl quinazoline 2-carboxamide] | 0.027 | 
13 | CCN(CC)C(=O)c1cc2ccccc2c(-c2ccccc2Cl)n1 [Example 6, N,N-diethyl 1-(2-chloro-phenyl) isoquinoline 3-carboxamide] | 0.017 | 
14 | CCC(C)N(C)C(=O)c1cc2ccccc2c(-c2ccccc2)n1 (stereo not shown) [Example 10, N-methyl N(1-methylpropyl) 1-phenyl isoquinoline 3-carboxamide] |  | Ki [1]: 0.002 µM
15 | CCC(C)N(C)C(=O)c1cc2sccc2c(-c2ccccc2Cl)n1 (stereo not shown) [Example 47, N-methyl N-(1-methylpropyl) 4-(2-chlorophenyl) thieno[3,2-c]pyridine 6-carboxamide] | 0.001 | 
16 | CCC(C)N(C)C(=O)c1cc2ccccc2c(-c2ccccc2F)n1 (stereo not shown) [Example 16, N-methyl N-(1-methylpropyl) 1-(2-fluorophenyl) isoquinoline 3-carboxamide] | 0.0009 | 
17 | CCN(CC)C(=O)c1cc2ccccc2c(-c2ccc(C)cc2)n1 [Example 12, N,N-diethyl 1-(4-methylphenyl) isoquinoline 3-carboxamide] | 0.099 | 
18 | CN1C(=O)CN=C(c2ccc(Cl)cc2)c2cc(Cl)ccc21 [Ro-5-4864] |  | activity at the binding sites of (^3 H) diazepam in the kidney (peripheral level) [2]: very active at the peripheral level; classification by decreasing affinity, "peripheral" type [2]: Ro-5-4864>diazepam>clonazepam; affinity for the binding sites of (^3 H) diazepam in the brain (central level) ([3]; brain, in words): inactive at the central level; classification by decreasing affinity, "cerebral" type ([3]; rank order): clonazepan>diazepam>Ro-5-4864
19 | CCN(CC)C(=O)c1cc2ccccc2c(-c2ccccc2)n1 [Example 5, N,N-diethyl 1-phenyl isoquinoline 3-carboxamide] | 0.15 | 
20 | CC[C@H]1CCCCN1C(=O)c1cc2ccccc2c(-c2ccccc2)n1 [Example 42, 2(S)-ethyl 1-[(1-phenyl 3-isoquinolyl)carbonyl]piperidine] | 0.013 | 
21 | CC[C@@H]1CCCCN1C(=O)c1cc2ccccc2c(-c2ccccc2)n1 [Example 41, 2(R)-ethyl 1-[(1-phenyl 3-isoquinolyl)carbonyl]piperidine] | 0.022 | 
22 | CCC1CCCCN1C(=O)c1cc2ccccc2c(-c2ccccc2)n1 (stereo not shown) [Example 40, 2-ethyl 1-[(1-phenyl 3-isoquinolyl)carbonyl]piperidine] | 0.016 | 
23 | CCN(CC)C(=O)c1cc2ccsc2c(-c2ccccc2Cl)n1 [Example 32, N,N-diethyl 7-(2-chlorophenyl) thieno[2,3-c]pyridine 5-carboxamide] | 0.0063 | 
24 | CC(C)N(C(=O)c1cc2ccccc2c(-c2ccccc2Cl)n1)C(C)C [Example 24, N,N-di(1-methylethyl) 1-(2-chlorophenyl) isoquinoline 3-carboxamide] | 0.02 | 
25 | CCCCN(CCCC)C(=O)c1cc2ccccc2c(-c2ccccc2)n1 [Example 39, N,N-dibutyl 1-phenyl isoquinoline 3-carboxamide] | 0.021 | 
26 | CCN(CC)C(=O)c1cc2sccc2c(-c2ccccc2Cl)n1 [Example 31, N,N-diethyl 4-(2-chlorophenyl) thieno[3,2-c]pyridine 6-carboxamide] | 0.009 | 
27 | CCN(CC)C(=O)c1cc(-c2cccc([N+](=O)[O-])c2)c2ccccc2n1 [Example 38, N,N-diethyl 4-(3-nitrophenyl) quinoline 2-carboxamide] | 0.03 | 
28 | O=C(c1cc2ccccc2c(-c2ccccc2Cl)n1)N1CCCCC1 [Example 13, 1-[[1-(2-chlorophenyl) 3-isoquinolyl]carbonyl]piperidine] | 0.072 | 
29 | CCN(CC)C(=O)c1cc(-c2ccccc2)c2ccccc2c1 [Example 1, N,N-diethyl 4-phenyl naphthalene 2-carboxamide] | 0.0054 | 
30 | CCN(CC)C(=O)c1cc2ccccc2c(-c2cccc(C(F)(F)F)c2)n1 [Example 43, N,N-diethyl 1-(3-trifluoromethylphenyl) isoquinoline 3-carboxamide] | 0.013 | 
